ChEMBL document CHEMBL1201862, “PubChem BioAssay data set” (2004)
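Assay format: 96-well plates, 48-hour exposure. GI50 is the concentration that inhibits growth by half.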 Calls of active or inactive are those of the source. Rule as the data show it: active = GI50 up to about 1.1 µM and inactive = higher.

Legend:
Assay in all cases: NCI-60 cell line screen, 48 h
UO-31 = system: UO-31
U-251 = system: U-251
SF-268 = system: SF-268
SK-MEL-2 = system: SK-MEL-2
LOX IMVI = system: LOX IMVI
786-0 = system: 786-0
COLO 205 = system: COLO 205
ACHN = system: ACHN
NCI-H23 = system: NCI-H23
DU-145 = system: DU-145
HCC 2998 = system: HCC 2998
T47D = system: T47D
UACC-62 = system: UACC-62
A498 = system: A498
PC-3 = system: PC-3
HCT-116 = system: HCT-116
OVCAR-3 = system: OVCAR-3
SN12C = system: SN12C
SF-295 = system: SF-295
KM12 = system: KM12

Measured: GI50

CC(C)=CCC[C@](C)(O[C@@H]1O[C@H](CO)[C@@H](O)[C@H](O)[C@H]1O)[C@H]1CC[C@]2(C)[C@@H]1[C@H](O)C[C@@H]1[C@@]3(C)CC[C@H](O)C(C)(C)[C@@H]3[C@@H](O[C@@H]3O[C@H](CO)[C@@H](O)[C@H](O)[C@H]3O)C[C@]12C [GINSENOSIDE RG1]
inactive: UO-31 > 100 µM | U-251 > 100 µM | SF-268 > 100 µM | SK-MEL-2 > 100 µM | LOX IMVI > 100 µM | 786-0 > 100 µM | COLO 205 > 100 µM | ACHN > 100 µM | NCI-H23 > 100 µM | DU-145 > 100 µM | HCC 2998 > 100 µM | T47D > 100 µM | UACC-62 > 100 µM | A498 > 100 µM | PC-3 > 100 µM | HCT-116 > 100 µM | OVCAR-3 > 100 µM | SN12C > 100 µM | SF-295 > 100 µM | KM12 > 100 µM

C=C1c2ccccc2Oc2nc3nc(N)c(C#N)c(N)c3c(N)c21
inactive: UO-31 25.2 µM | U-251 30.2 µM | SF-268 21.6 µM | SK-MEL-2 17.8 µM | LOX IMVI 24.5 µM | 786-0 27 µM | COLO 205 19.6 µM | ACHN 40.5 µM | NCI-H23 18 µM | DU-145 43.7 µM | HCC 2998 19.5 µM | T47D 51.1 µM | UACC-62 35.7 µM | A498 > 100 µM | PC-3 19.3 µM | HCT-116 22.9 µM | OVCAR-3 16.6 µM | SN12C 37.6 µM | SF-295 30.3 µM | KM12 18.6 µM

CN(C(=O)Cc1ccc(Cl)c(Cl)c1)[C@@H]1CCCC[C@H]1[N+]1(C)CC=CC1
inactive: UO-31 > 100 µM | U-251 > 100 µM | SF-268 > 100 µM | SK-MEL-2 > 100 µM | LOX IMVI > 100 µM | 786-0 > 100 µM | COLO 205 > 100 µM | ACHN > 100 µM | NCI-H23 > 100 µM | DU-145 > 100 µM | HCC 2998 > 100 µM | T47D > 100 µM | UACC-62 > 100 µM | A498 > 100 µM | PC-3 > 100 µM | HCT-116 > 100 µM | OVCAR-3 > 100 µM | SN12C > 100 µM | SF-295 > 100 µM | KM12 > 100 µM

Cc1c2cnccc2c(C)c2c1c1ccccc1n2CCOC(=O)c1ccccc1
inactive: UO-31 3.1 µM | U-251 15.7 µM | SF-268 11.4 µM | SK-MEL-2 12.5 µM | LOX IMVI 8.38 µM | 786-0 11.5 µM | COLO 205 7.8 µM | ACHN 4.74 µM | NCI-H23 15.7 µM | DU-145 25.6 µM | HCC 2998 10.7 µM | T47D 30 µM | UACC-62 11.9 µM | A498 1.75 µM | PC-3 28.6 µM | HCT-116 5.41 µM | OVCAR-3 12.2 µM | SN12C 2.52 µM | SF-295 11 µM | KM12 12.5 µM

COC(C(O)CO)C(O)C(O)C(=O)NNc1ccccc1 (stereo not given)
inactive: UO-31 > 100 µM | U-251 > 100 µM | SF-268 23.3 µM | SK-MEL-2 38.9 µM | LOX IMVI 2.92 µM | 786-0 > 100 µM | COLO 205 11.7 µM | ACHN > 100 µM | NCI-H23 > 100 µM | DU-145 > 100 µM | HCC 2998 > 100 µM | T47D 23.2 µM | UACC-62 5.33 µM | A498 > 100 µM | PC-3 > 100 µM | HCT-116 > 100 µM | OVCAR-3 > 100 µM | SN12C > 100 µM | SF-295 21 µM | KM12 23.6 µM

CN(C)c1ccc(/C=C2\C[C@H]3[C@@H]4CC=C5C[C@@H](N6CCCC6)CC[C@]5(C)[C@H]4CC[C@]3(C)[C@H]2O)cc1
inactive: COLO 205 1.52 µM | NCI-H23 3.66 µM | DU-145 3.05 µM | PC-3 2.18 µM | OVCAR-3 1.15 µM | SN12C 1.22 µM | SF-295 1.13 µM | KM12 2.24 µM
active: UO-31 0.838 µM | U-251 0.925 µM | SF-268 0.989 µM | SK-MEL-2 1.07 µM | LOX IMVI 0.787 µM | 786-0 0.659 µM | ACHN 0.873 µM | HCC 2998 0.91 µM | T47D 0.998 µM | UACC-62 0.871 µM | A498 1.01 µM | HCT-116 0.897 µM

COC(=O)/C=C1\C(=O)N(C(C)=O)c2ccc(Br)cc21
active: UO-31 0.69 µM
inactive: U-251 8.05 µM | SF-268 7.46 µM | SK-MEL-2 13.9 µM | LOX IMVI 7.89 µM | 786-0 5.46 µM | COLO 205 13.7 µM | ACHN 11.6 µM | NCI-H23 15.3 µM | DU-145 12.8 µM | HCC 2998 17.7 µM | T47D 5.02 µM | UACC-62 11.6 µM | A498 21.9 µM | PC-3 8.75 µM | HCT-116 6.92 µM | OVCAR-3 4.76 µM | SN12C 5.71 µM | SF-295 16.9 µM | KM12 14.3 µM

Cc1ccc(N2C=Nn3c(nc4sc5c(c4c3=O)CCCC5)C2)cc1
inactive: UO-31 > 100 µM | U-251 46.7 µM | SF-268 83 µM | SK-MEL-2 > 100 µM | LOX IMVI 47.4 µM | 786-0 35.7 µM | COLO 205 67.8 µM | ACHN 46.5 µM | NCI-H23 41.7 µM | DU-145 69.3 µM | HCC 2998 39.9 µM | T47D 43.3 µM | UACC-62 > 100 µM | A498 54.5 µM | PC-3 49.4 µM | HCT-116 41.2 µM | OVCAR-3 49.4 µM | SN12C 63.8 µM | SF-295 44.8 µM | KM12 62.4 µM

O=c1cc(-c2ccccc2)oc2ccc(Oc3nnnn3-c3ccccc3)cc12
inactive: UO-31 > 100 µM | U-251 35 µM | SF-268 11.8 µM | SK-MEL-2 39.2 µM | LOX IMVI > 42.7 µM | 786-0 25.9 µM | COLO 205 > 87.3 µM | ACHN > 64.4 µM | NCI-H23 > 62.7 µM | DU-145 > 100 µM | HCC 2998 > 100 µM | T47D 12.1 µM | UACC-62 > 48.2 µM | A498 90.2 µM | PC-3 > 100 µM | HCT-116 > 81.1 µM | OVCAR-3 > 100 µM | SN12C > 42.3 µM | SF-295 29.2 µM | KM12 > 100 µM

CCC(=O)OCOc1ccc(/C=C2\CCC(CN(C)C)C2=O)cc1 (stereo not given)
inactive: UO-31 7.8 µM | U-251 11.1 µM | SF-268 8.59 µM | SK-MEL-2 11 µM | LOX IMVI 1.94 µM | 786-0 2.45 µM | COLO 205 3.78 µM | ACHN 7.73 µM | NCI-H23 5.42 µM | DU-145 10.8 µM | HCC 2998 5.96 µM | T47D 3.52 µM | UACC-62 4.1 µM | A498 15.9 µM | PC-3 14.2 µM | HCT-116 2.74 µM | OVCAR-3 3.7 µM | SN12C 2.72 µM | SF-295 8.85 µM | KM12 3.9 µM
